Data as given in doi:10.1101/2025.05.22.655130v1, “Design to Data for mutants of β-glucosidase B from Paenibacillus polymyxa: L336M, L336A, L336S, L336H, D35E, D35W” (biorxiv, 2025).

Target: T1, β-glucosidase B (BglB) (Paenibacillus polymyxa, UniProt P22505)
T1 construct: previously cloned in pET29b+, expressed in E. coli, purified by nickel IMAC; band about 50 kD
Experiment: Michaelis-Menten, 4-nitrophenol release at […] nm
Assay type: biochemical
Settings: 0.11-100 mM substrate, readings every minute for 15 min; triplicate

T1 sequence (P22505 whole entry): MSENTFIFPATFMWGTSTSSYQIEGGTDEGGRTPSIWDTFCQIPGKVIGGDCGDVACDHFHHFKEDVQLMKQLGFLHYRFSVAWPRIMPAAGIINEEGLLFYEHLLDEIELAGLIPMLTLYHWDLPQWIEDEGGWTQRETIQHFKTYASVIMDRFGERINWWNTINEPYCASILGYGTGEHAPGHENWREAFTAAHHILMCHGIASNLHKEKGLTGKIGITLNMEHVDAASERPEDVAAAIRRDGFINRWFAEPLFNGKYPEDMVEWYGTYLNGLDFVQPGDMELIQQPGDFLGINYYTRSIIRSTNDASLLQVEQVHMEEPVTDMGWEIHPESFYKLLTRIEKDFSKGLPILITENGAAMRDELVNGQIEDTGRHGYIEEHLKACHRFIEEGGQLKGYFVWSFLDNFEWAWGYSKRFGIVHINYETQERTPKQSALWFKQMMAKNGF

- Km: 3.93 ± 0.26 mM
SMILES: O=[N+]([O-])c1ccc(O[C@@H]2O[C@H](CO)[C@@H](O)[C@H](O)[C@H]2O)cc1 [pNPG, p-nitrophenyl-beta-D-glucoside]
